Earlier results in patent US20250018217A1, “PH[…] THERAPY APPARATUS AND METHODS FOR TREATING ORAL DISEASE” (Biolux Group SA, priority 2022, published 2025).
Entries after “also recorded” stand apart in the source; their conditions may differ. Where two headings read alike, the source gives them in different places.

Legend:
[1] = daily oral supplement of 2,000 IU to 6,000 IU in adults, within 3 months

COc1cc(/C=C/C(=O)CC(=O)/C=C/c2ccc(O)c(OC)c2)ccc1O [Curcumin]
Antimicrobial activity (in solution) (microbial species; 0.75 to 5 g/l, excitation wavelength 547 nm): [50]S. mutans; also recorded: [51]L. acidophilus

Cc1cc(=[N+](C)C)cc2sc3cc(N(C)C)cc(C)c3nc1-2.[Cl-] [Dimethyl methylene blue]
Antimicrobial activity (in solution) (microbial species; 800 um, excitation wavelength 635-652): [12]A. baumannii

O=C1OC2(c3ccccc31)c1cc(I)c(O)c(I)c1Oc1c2cc(I)c(O)c1I [Erythrosine]
Antimicrobial activity (in solution) (microbial species; excitation wavelength 500-550 nm): [64]S. mutans

CN(C)c1ccc2nc3ccc(=[N+](C)C)cc-3sc2c1 [Methylene blue]
Antimicrobial activity (in solution) (microbial species; 25 ug/ml, excitation wavelength 632 nm): [8] Various

CCNc1cc2[s+]c3cc(NCC)c(C)cc3nc2cc1C.[Cl-] [New Methylene blue]
Antimicrobial activity (in solution) (microbial species; 00 uM, excitation wavelength 635-652): [17]A. baumannii

O=C([O-])c1c(Cl)c(Cl)c(Cl)c(Cl)c1-c1c2cc(I)c(=O)c(I)c-2oc2c(I)c([O-])c(I)cc12.[Na+].[Na+] [Rose Bengal]
Antimicrobial activity (in solution) (microbial species; 10 um, excitation wavelength 532 nm): [26]E. faecalis

Cc1cc2nc3ccc(N(C)C)cc3[s+]c2cc1N.[Cl-] [Toluidine blue O]
Antimicrobial activity (in solution) (microbial species; 100 mg/l, excitation wavelength 410 nm-660 nm): [21]E. coli

Phthalocynine
Antimicrobial activity (in solution) (microbial species; excitation wavelength 670 nm): [74]A. hidrophila

Sulfonic porphyrins (TPPS)
Antimicrobial activity (in solution) (microbial species; no concentration or wavelength printed (TPPS)): [42]S. aureus

vitamin D
Blood levels of vitamin D [1]: 40 ng/mL
